One assay has as its target T1, human ALX receptor (Homo sapiens, UniProt P25090).
T1 construct: expressed in transfected cells; host or cells: HEK293 (HEK293-hALXR-Gα16)
T1 sequence (P25090 1-351): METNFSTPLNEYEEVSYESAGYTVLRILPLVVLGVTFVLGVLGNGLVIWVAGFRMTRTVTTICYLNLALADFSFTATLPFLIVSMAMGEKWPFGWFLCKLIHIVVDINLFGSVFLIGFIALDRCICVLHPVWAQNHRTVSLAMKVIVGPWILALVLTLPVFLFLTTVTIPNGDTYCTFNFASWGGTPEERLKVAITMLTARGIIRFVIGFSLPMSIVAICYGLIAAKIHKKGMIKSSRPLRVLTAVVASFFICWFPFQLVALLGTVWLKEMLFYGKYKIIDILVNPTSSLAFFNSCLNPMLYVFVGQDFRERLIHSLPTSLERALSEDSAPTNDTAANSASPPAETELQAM
The experiment in a line: Intracellular calcium measurements (FLIPR), agonistic activity in HEK293-hALXR-Gα16 cells. In kind it is cell-based. The following applies: Fluo-4 calcium FLIPR, normalized to WKYMVm 10 nM. A digest of the protocol: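 Agonist-induced calcium flux was recorded by FLIPR (488/540 nm) in HEK293-hALXR-Gα16 cells pre-loaded with Fluo-4 AM (1 μM, 60 min, 37°C). Peak signal above baseline, after subtracting buffer addition, was expressed relative to WKYMVm at 10 nM final.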
(Calcium assays in cells follow changes in intracellular calcium, usually with a dye or a luminescent sensor.)

The target of the next assay is T2, human FPRL2 (Homo sapiens, UniProt P25089).
T2 construct: expressed in transfected cells; host or cells: HEK293 (HEK293-hFPRL2-Gα16)
T2 sequence (P25089 1-353): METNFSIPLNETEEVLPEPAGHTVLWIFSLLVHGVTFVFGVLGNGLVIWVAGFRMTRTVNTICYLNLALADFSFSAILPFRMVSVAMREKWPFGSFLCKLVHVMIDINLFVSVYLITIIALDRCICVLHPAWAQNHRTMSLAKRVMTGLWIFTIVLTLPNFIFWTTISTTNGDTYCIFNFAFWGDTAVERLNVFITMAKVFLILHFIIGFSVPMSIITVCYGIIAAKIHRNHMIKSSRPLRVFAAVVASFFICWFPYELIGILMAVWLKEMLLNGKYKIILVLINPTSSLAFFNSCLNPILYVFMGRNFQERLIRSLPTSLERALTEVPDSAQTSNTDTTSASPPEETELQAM
Nature of the assay: Intracellular calcium measurements (FLIPR), agonistic activity in HEK293-hFPRL2-Gα16 cells. The following applies: Fluo-4 calcium FLIPR, normalized to GLY14-Humanin 100 nM. In kind it is cell-based. A digest of the protocol:
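Peak values after baseline subtraction are expressed relative to 100 nM Gly14-Humanin; compounds diluted in assay buffer from 10 mM DMSO stocks.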

Where only a bound is given, the exact number is not on record here.

For the compound `CCOc1ccc(CNC(=O)C2C(C(=O)NCCCCN3CCCC3)C3C=CC2C32CC2)cc1` (stereo not drawn) [Example 386, (5R*)—N^5-(4-Ethoxyphenyl-methyl)-(6R*)—N^6-(4-pyrrolidino-butyl)-(4S*,7R*)-[4,7-ethenylene-spiro[2.4]heptane]-5,6-dicarboxamide], the EC50 (in general, the midpoint of the concentration-response curve) was 2910 nM on human ALX receptor and 254 nM at human FPRL2.
The like results for `CC(=O)c1csc(CNC(=O)[C@H]2[C@H](C(=O)NCCN(C)C)[C@H]3C=C[C@@H]2C32CC2)n1` (racemic) [Example 266, (5R*)—N^5-(4-Acetyl-thiazol-2-yl-methyl)-(6R*)—N^6-(2-dimethylamino-ethyl)-(4S*,7R*)-[4,7-ethenylene-spiro[2.4]heptane]-5,6-dicarboxamide] were, in that order, 65 nM and 1210 nM.
The like results for `CN(C)CCN(C)C(=O)[C@H]1[C@H](C(=O)Nc2ccc(Br)cc2)[C@@H]2C=C[C@H]1C21CC1` (racemic) [Example 45, (5R*)—N^5-(4-Bromophenyl)-(6R*)—N^6-methyl-N^6-(2-dimethylamino-ethyl)-(4S*,7R*)-[4,7-ethenylene-spiro[2.4]heptane]-5,6-dicarboxamide] were, in that order, 11 nM and 4160 nM.
As to `O=C(NCCN1CCNC1=O)[C@H]1[C@H](C(=O)Nc2ccc(Br)cc2)[C@@H]2CC[C@H]1C21CC1` (racemic) [Example 105, (5R*)—N^5-(4-Bromophenyl)-(6R*)—N^6-[(2-imidazolidin-2-on-1-yl)-ethyl]-(4S*,7R*)-[4,7-ethylene-spiro[2.4]heptane]-5,6-dicarboxamide], the EC50 is 2.4 nM at human ALX receptor and 3730 nM at human FPRL2.
The like results for `Cc1nc(NC(=O)[C@H]2[C@H](C(=O)NCCCCN3CCCC3)[C@H]3C=C[C@@H]2C32CC2)sc1C` (racemic) [Example 369, (5R*)—N^5-(4,5-Dimethyl-thiazol-2-yl)-(6R*)—N^6-(4-pyrrolidino-butyl)-(4S*,7R*)-[4,7-ethenylene-spiro[2.4]heptane]-5,6-dicarboxamide] were, in that order, > 25000 nM and 204 nM.
Consider `O=C(NCCCCN1CCCC1)[C@H]1[C@H](C(=O)Nc2ccc3ncoc3c2)[C@@H]2C=C[C@H]1C21CC1` (racemic) [Example 254, (5R*)—N^5-(Benzo[d]oxazol-6-yl)-(6R*)—N^6-(4-pyrrolidin-1-yl-butyl)-(4S*,7R*)-[4,7-ethenylene-spiro[2.4]heptane]-5,6-dicarboxamide], for which the EC50 on human ALX receptor is 492 nM; on human FPRL2 it was 67 nM.
The like results for `CC(C)CC(CO)NC(=O)C1C(C(=O)Nc2ccc(Br)cc2)C2C=CC1C21CC1` (mixture of isomers) [Example 59, (5R*)—N^5-(4-Bromophenyl)-(6R*)—N^6-[(2S)-1-hydroxy-4-methyl-pent-2-yl]-(4S*,7R*)-[4,7-ethenylene-spiro[2.4]heptane]-5,6-dicarboxamide] were, in that order, 21 nM and 8280 nM.
Turning to `O=C(NCCCCN1CCCC1)[C@H]1[C@H](C(=O)NCCC2=CCCCC2)[C@@H]2C=C[C@H]1C21CC1` (racemic) [Example 341, (5R*)—N^5-(2-(Cyclohexen-1-yl)ethyl)-(6R*)—N^6-(4-pyrrolidino-butyl)-(4S*,7R*)-[4,7-ethenylene-spiro[2.4]heptane]-5,6-dicarboxamide], the 50% effective concentration (EC50) at human ALX receptor stood at 1740 nM; on human FPRL2, 165 nM.
The like results for `CCCCCNC(=O)[C@H]1[C@H](C(=O)Nc2ccc(Br)cc2)[C@@H]2C=C[C@H]1C21CC1` (racemic) [Example 67, (5R*)—N^5-(4-Bromophenyl)-(6R*)—N^6-(pentyl)-(4S*,7R*)-[4,7-ethenylene-spiro[2.4]heptane]-5,6-dicarboxamide] were, in that order, 34 nM and > 25000 nM.
On to `O=C(NCCCCN1CCCC1)[C@H]1[C@H](C(=O)NCc2c(F)cc(Br)cc2F)[C@@H]2C=C[C@H]1C21CC1` [Example 317, (5R)—N^5-(4-Bromo-2,6-difluorophenyl-methyl)-(6R)—N^6-(4-pyrrolidin-1-yl-butyl)-(4S,7R)-[4,7-ethenylene-spiro[2.4]heptane]-5,6-dicarboxamide], for which the EC50 at human ALX receptor turned out to be 28 nM; at human FPRL2, 44 nM.
In the case of `O=C(Nc1ncc(Br)s1)C1C(C(=O)NC2CCC(CO)CC2)C2CCC1C21CC1` (single isomer, unassigned) [Example 410], the figures for the EC50 at human ALX receptor and on human FPRL2 were 855 nM and 18200 nM, respectively.
The like results for `O=C(NCCCCO)[C@H]1[C@H](C(=O)Nc2ncc(Br)s2)[C@@H]2CC[C@H]1C21CC1` [Example 405, (5R)—N^5-(5-Bromothiazol-2-yl)-(6R)—N^6-(4-hydroxybutyl)-(4S,7R)-[4,7-ethylene-spiro[2.4]heptane]-5,6-dicarboxamide] were, in that order, 80 nM and 7840 nM.
The like results for `NCc1cccc(CNC(=O)[C@H]2[C@H](C(=O)Nc3ccc(Br)cc3)[C@@H]3C=C[C@H]2C32CC2)c1` (racemic) [Example 7, (5R*)—N^5-(4-Bromophenyl)-(6R*)—N^6-((3-aminomethyl-phenyl)-methyl)-(4S*,7R*)-[4,7-ethenylene-spiro[2.4]heptane]-5,6-dicarboxamide] were, in that order, 0.55 nM and 413 nM.
The like results for `O=C(NCCCCN1CCCC1)C1C(C(=O)NCCc2ccc(F)cc2)C2C=CC1C21CC1` (stereo not drawn) [Example 382, (5R*)—N^5-(2-(4-Fluorophenyl)ethyl)-(6R*)—N^6-(4-pyrrolidino-butyl)-(4S*,7R*)-[4,7-ethenylene-spiro[2.4]heptane]-5,6-dicarboxamide] were, in that order, 6360 nM and 52 nM.
For the compound `COc1ccc(CNC(=O)[C@H]2[C@H](C(=O)NCCCCN3CCCC3)[C@H]3C=C[C@@H]2C32CC2)cc1OC` (racemic) [Example 375, (5R*)—N^5-(3,4-Dimethoxyphenyl-methyl)-(6R*)—N^6-(4-pyrrolidino-butyl)-(4S*,7R*)-[4,7-ethenylene-spiro[2.4]heptane]-5,6-dicarboxamide], the results for the EC50 at human ALX receptor and at human FPRL2 were 9050 nM and 443 nM, respectively.
With `NCC1CCN(C(=O)C2C(C(=O)Nc3ncc(Br)s3)C3CCC2C32CC2)CC1` [Example 336, (5R)—N^5-(5-Bromo-thiazol-2-yl)-(6R)—N^6,N^6-(3-(aminomethyl)pentane-1,5-diyl)-(4S,7R)-[4,7-ethylene-spiro[2.4]heptane]-5,6-dicarboxamide], the EC50 on human ALX receptor was 6.2 nM; on human FPRL2 it was 1490 nM.
For `Cc1nn(C)c(Cl)c1C(=O)NC[C@H]1[C@H](C(=O)Nc2ccc(Br)cc2)[C@@H]2C=C[C@H]1C21CC1` (racemic) [Example 190, (5R*)—N^5-(4-Bromo-phenyl)-(6R*)-6-{[(5-chloro-1,3-dimethyl-1H-pyrazole-4-carbonyl)-amino]-methyl}-(4S*,7R*)-[4,7-ethenylene-spiro[2.4]heptane]-5-carboxamide], the EC50 at human ALX receptor turned out to be 963 nM; at human FPRL2, 1700 nM.
Consider `O=C(NCCCCN1CCCC1)[C@H]1[C@H](C(=O)NCc2c(F)ccc(F)c2Cl)[C@@H]2C=C[C@H]1C21CC1` (racemic) [Example 371, (5R*)—N^5-(2-Chloro-3,6-difluorophenyl-methyl)-(6R*)—N^6-(4-pyrrolidino-butyl)-(4S*,7R*)-[4,7-ethenylene-spiro[2.4]heptane]-5,6-dicarboxamide], for which the values for the EC50 on human ALX receptor and on human FPRL2 were > 25000 nM and 271 nM, respectively.
The like results for `CCN(CC)CCCNC(=O)[C@H]1[C@H](C(=O)Nc2ccc(Br)cc2)[C@@H]2C=C[C@H]1C21CC1` (racemic) [Example 78, (5R*)—N^5-(4-Bromophenyl)-(6R*)—N^6-(3-diethyl-amino-propyl)-(4S*,7R*)-[4,7-ethenylene-spiro[2.4]heptane]-5,6-dicarboxamide] were, in that order, 80 nM and 5480 nM.
As for `O=C(NCC1CCCCN1)[C@H]1[C@H](C(=O)Nc2ncc(Br)s2)[C@@H]2CC[C@H]1C21CC1` (stereo partly drawn) [Example 417, (5R)—N^5-(5-Bromothiazol-2-yl)-(6R)—N^6-[(piperidin-2-yl)-methyl]-(4S,7R)-[4,7-ethylene-spiro[2.4]heptane]-5,6-dicarboxamide], the EC50 was found to be 2.1 nM on human ALX receptor and 262 nM on human FPRL2.
The like results for `O=C(NCCCCN1CCCC1)[C@H]1[C@H](C(=O)NCc2ccc(Br)c(F)c2)[C@@H]2C=C[C@H]1C21CC1` [Example 321, (5R)—N^5-(4-Bromo-3-fluorophenyl-methyl)-(6R)—N^6-(4-pyrrolidino-butyl)-(4S,7R)-[4,7-ethenylene-spiro[2.4]heptane]-5,6-dicarboxamide] were, in that order, 117 nM and 15 nM.
